Patent publication US20020122768A1, “Stable radiopharmaceutical compositions and methods for preparation thereof” (priority 2000, published 2002)

Key:
Type in all cases: physicochemical
[1] = Solution stability of ^177Lu-C at −78° C., RCP by radio-HPLC; conditions: ^177Lu-C prepared using 2 mg GA
Protocol: (§1) The integrity of a radiopharmaceutical is measured by the radiochemical purity (RCP) of the radiolabeled compound using ITLC or more preferably HPLC. The advantage of using HPLC is that radio-impurities caused by radiolytic degradation can be separated from the radiopharmaceutical under optimized chromatographic conditions. […] The radiopharmaceutical compositions of this invention are effective in maintaining the long-term stability of samples that have been frozen, thawed, and re-tested periodically for 7 days.
(§2) The initial RCP of a radiopharmaceutical is largely dependent on radiolabeling conditions such as pH, heating temperature and time. Once a radiopharmaceutical is prepared in high yield, the stability of the radiopharmaceutical composition is measured by the` RCP change of the radiopharmaceutical over a certain period of time. For comparison purposes, sodium gentisate or sodium ascorbate was often used as the reference since they have been used in various radiopharmaceutical formulations.
(§3) HPLC method 3 used a HP-1100 HPLC system with a UV/visible detector (λ=220 nm), an IN-US radio-detector, and a Zorbax C18 column (4.6 mm×250 mm, 80 Å pore size). The flow rate was 1 mL/min with a gradient mobile phase starting from 90% solvent A (0.025 M ammonium acetate buffer, pH 6.8) and 10% solvent B (acetonitrile) at 0 min to 88% solvent A and 12% solvent B at 18 min, followed by an isocratic wash using 40% of solvent A and 60% solvent B from 19 to 25 min.
The ITLC method used Gelman Sciences silica-gel ITLC paper strips and 1:1 mixture of acetone and saline as eluant. By this method, the radiolabeled compounds migrate to the solvent front while [^90Y]/^177Lu]colloid and [^90Y]/^177Lu]acetate remain at the origin.
(§4) The 0.5 M ammonium acetate buffer (pH 8.0) was first degassed under vacuum for 1-2 min. COMPOUND C and gentisic acid (sodium salt, GA) were dissolved in the degassed buffer to give a concentration of 100 μg/mL for COMPOUND C and 2 mg/mL for GA. The resulting solution was immediately degassed under vacuum for another 1-2 min. To a clean sealed 5 mL vial was added 1.0 mL of the degassed 0.5 M ammonium acetate buffer (pH 8.0) containing 100 μg COMPOUND C and 2 mg GA. The solution was degassed again under vacuum. Upon addition of ˜20 μL of ^177LuCl3 solution (˜20 mCi) in 0.05 N HCl, the reaction mixture was heated at 100° C. for 5 min. After cooling to room temperature, a sample of the resulting solution was analyzed by HPLC (Method 3, injection volume=5 μL) and ITLC. […] To the solution above was added 0.5 mL of sodium ascorbate solution (40 mg/mL in 0.5 M ammonium acetate buffer, pH=7.4). The resulting mixture was then kept in a dry-ice box (−78° C.) for 7 days. Samples were analyzed at t=0, 3 and 7 days.
as §4, with “COMPOUND” for “The 0.5 M ammonium acetate buffer (pH 8.0) was first degassed under vacuum for 1-2 min. COMPOUND”, “1.0 μL” for “1.0 mL”, “of 2,3,4-THBA” for “of sodium ascorbate”, “solution (20” for “solution (40”
COMPOUND C and gentisic acid (sodium salt, GA) were dissolved in the degassed buffer to give a concentration of 100 μg/mL for COMPOUND C and 2 mg/mL for GA. The resulting solution was immediately degassed under vacuum for another 1-2 min. […]

[2] = as above; conditions: ^177Lu-C prepared using 2 mg GA, degassed, second stabilizer (20 mg AA, 20 mg DSA, 10 mg 2,3,4-THBA, 10 mg 3,4,5-THBA) added post-labeling
[3] = Solution stability of ^90Y-B at −78° C., RCP by radio-HPLC; conditions: ^90Y-B prepared with GA
Protocol: as §1, §2
as §3, with “2” for “3”, “92%” for “90%”, “8%” for “10%”, “90%” for “88%”, “10%” for “12%”
The ITLC method used Gelman Sciences silica-gel ITLC paper strips and 1:1 mixture of acetone and saline as eluant. By this method, the radiolabeled compounds migrate to the solvent front while [^90Y]/^177Lu]colloid and [^90Y]/^177Lu]acetate remain at the origin. […]
The 0.5 M ammonium acetate buffer (pH 8.0) was first degassed under vacuum for 1-2 min. COMPOUND B and gentisic acid (sodium salt, GA) were dissolved in the degassed buffer to give a concentration of 100 μg/mL for COMPOUND B and 20 mg/mL for GA. The resulting solution was immediately degassed under vacuum for another 1-2 min. To a clean sealed 5 mL vial was added 1.0 mL of the degassed 0.5 M ammonium acetate buffer (pH 8.0) containing 100 μg COMPOUND B and 10 mg GA. The solution was degassed again under vacuum. Upon addition of ˜20 μL of ^90YCl3 solution (˜20 mCi) in 0.05 N HCl, the reaction mixture was heated at 100° C. for 5 min. After cooling to room temperature, a sample of the resulting solution was diluted 20-fold with saline containing gentisate (10 mg/mL), and was then analyzed by HPLC (Method 2, injection volume=1-2 μL) and ITLC. […] To the solution above was added 0.5 mL of sodium ascorbate solution (40 mg/mL in 0.5 M ammonium acetate buffer, pH=7.4). The resulting mixture was then kept in a dry-ice box (−78° C.) for 7 days. Samples were analyzed at t=0, 3 and 7 days.
The 0.5 M ammonium acetate buffer (pH 8.0) was first degassed under vacuum for 1-2 min. COMPOUND B and gentisic acid (sodium salt, GA) were dissolved in the degassed buffer to give a concentration of 100 μg/mL for COMPOUND B and 20 mg/mL for GA. The resulting solution was immediately degassed under vacuum for another 1-2 min. To a clean sealed 5 mL vial was added 1.0 mL of the degassed 0.5 M ammonium acetate buffer (pH 8.0) containing 100 μg COMPOUND B and 10 mg GA. The solution was degassed again under vacuum. Upon addition of ˜20 μL of ^90YCl3 solution (˜20 mCi) in 0.05 N HCl, the reaction mixture was heated at 100° C. for 5 min. After cooling to room temperature, a sample of the resulting solution was diluted 20-fold with saline containing gentisate (10 mg/mL), and was then analyzed by HPLC (Method 2, injection volume=1-2 μL) and ITLC. […] To the solution above was added 0.5 mL of 2,3,4-trihydroxybenzoic acid solution (20 mg/mL in 0.5 M ammonium acetate buffer, pH=6.5). The resulting mixture was then kept in a dry-ice box (−78° C.) for 7 days. Samples were analyzed at t=0, 3 and 7 days. […]

[4] = degassed, second stabilizer (20 mg AA, 20 mg DSA, 10 mg 2,3,4-THBA, 10 mg 3,4,5-THBA) added post-labeling
[5] = second stabilizer added post-labeling, t = 0 to 7 days
[6] = degassed, second stabilizer (20 mg AA, 20 mg DSA, 10 mg 2,3,4-THBA, 10 mg HABA) added post-labeling

With O=C1O[C@H]([C@@H](O)CO)C([O-])=C1O.[Na+] [AA, sodium ascorbate, reference compound] the “RCP (%) t = 0” value [1, 4] was 97.6%, the “RCP (%) t = 3 days” value [1, 4] was 97.5% and the “RCP (%) t = 7 days” value [1, 4] was 93.0%. For the same molecule, the “RCP (%) change” value [1, 5] was 4.6%, the “RCP (%) t = 1 day” value [2] was 97.7% and the “RCP (%) t = 0” value [3, 6] was 95.0%. The “RCP (%) t = 3 days” value [3, 6] was 93.9%, the “RCP (%) t = 7 days” value [3, 6] was 94.5% and the “RCP (%) change” value [3, 5] was 0.5%.
